In PubChem BioAssay AID1919017 (Molecular Pharmacology Branch, DTP, NCI, 2023):

System: SW1271 complex spheroids with HUVEC/MSC, growth, % test/control
Experiment: Anticancer human tumor SW1271 cell line growth inhibition [AhR];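 also: spheroids exposed to agents for 7 days before readout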
Conditions: for IC50: curve of first compound; for viability, T/C: stronger effect = lower value
Excerpt: Multicellular complex tumor spheroid response to aryl hydrocarbon receptor antagonists in combination with a variety of drugs and investigational agents in selected tumor cell lines
The current study was undertaken to assess response to aryl hydrocarbon receptor antagonists in combination with standard-of-care drugs and investigational agents in solid tumor complex spheroid models. Complex spheroids include a stromal component modeled by human endothelial cells (HUVEC) and fibroblasts modeled by human mesenchymal stem cells (MSCs). The concentration ranges selected for each drug and investigational agent were based upon clinically achievable concentrations if the clinical Cmax of the agent was known.
Compounds. The drugs and investigational agents: BAY 2416964 (NSC825713), GNF351 (NSC835774), CH-223191 (NSC835775), CPI-455 (NSC825282), aza-TdCyd (NSC777586), decitabine (NSC127716), belinostat (NSC758774), entinostat (NSC756642), pevonedistat (NSC761192), tazemetostat (NSC777109), talazoparib (NSC765396), olaparib (NSC753686), selinexor (NSC780203), nedisertib (M3814, NSC802822), bortezomib (NSC756655), venetoclax (NSC766270), doxorubicin (NSC123127), elimusertib (BAY189344, NSC800525), ceralasertib (AZD6738, NSC777638), TAK-243 (NSC785004), alisertib (NSC759677), etoposide (NSC141540), topotecan (NSC609699), eribulin (NSC707389), gemcitabine (NSC613327), carboplatin (NSC241240), cisplatin (NSC119875), and SN-38 (NSC673596) were obtained from the National Cancer Institute (NCI) Developmental Therapeutics Program Chemical Repository (32). The FDA-approved anticancer drug set is available from the Developmental Therapeutics Program at https://dtp.cancer.gov/organization/dscb/obtaining/available plates.htm. […] The stock solutions were prepared in dimethyl sulfoxide (DMSO, Sigma-Aldrich, St. Louis, MO, cat. D2650), except for the platinum compounds which were prepared in saline (Quality Biological, Gaithersburg, MD, cat. 114-055-101), at 800-fold the tested concentration and stored at -70 degrees C prior to their use. All drugs and investigational agents were tested over a range starting from a high concentration at or near the clinical Cmax and decreasing in half-log increments. If the clinical Cmax for an agent had not been determined, the highest concentration tested was 10 microM (Table 1).
Cell Culture. All cells were maintained in an incubator at 37 degrees C and 5% CO2 with 95% humidity. The PDC lines were cultured according to standard operating procedures established by the NCI PDMR (https://pdmr.cancer.gov). Briefly, all PDCs were thawed and cultured in Matrigel-coated flasks prepared with a working solution of 1X Ham's F-12 nutrient mix, without supplementation (Invitrogen, Waltham, MA, cat. 11765054), 100 U/mL penicillin-streptomycin (Invitrogen, cat. 15140122), and 2.5% Matrigel (Corning Inc., Corning, NY, cat. 354248) for the first three passages. All PDCs were cultured in complete DMEM/F-12 media containing advanced DMEM/F-12 (Invitrogen, cat. 12634028), 4.9% defined fetal bovine serum, heat inactivated (HyClone Laboratories Inc., Logan, UT, cat. SH30070.03HI), 389 ng/mL hydrocortisone (Sigma-Aldrich, cat. H4001), 9.7 ng/mL human EGF recombinant protein (Invitrogen, cat. PHG0313), 23.4 microg/mL adenine (Sigma-Aldrich, cat. A2786), 97.3 U/mL penicillin-streptomycin (Invitrogen, cat. 15140122), 1.9 mM L-glutamine (Invitrogen, cat. 25030081), and 9.7 microM Y-27632 dihydrochloride (Tocris Bioscience, Bristol, United Kingdom, cat. 1254). The PDCs were cultured in complete DMEM/F12 media without 10 microM Y-27632 dihydrochloride for at least two passages prior to the screen. The established cell lines NCI-H1341 and […] were cultured in DMEM/F-12, HEPES (Invitrogen, cat. 11330032), 5% defined fetal bovine serum (HyClone Laboratories Inc., cat. SH30070.03), ITS premix universal culture supplement [insulin (5 microg/mL), transferrin (5 microg/mL), and selenious acid (5 ng/mL)] […]

[1] = second compound 0.1 µM, first compound 0.0316 µM
[2] = second compound 0.1 µM, first compound 0.1 µM
[3] = second compound 0.1 µM, first compound 0.316 µM
[4] = second compound 0.1 µM, first compound 1 µM
[5] = second compound 0.1 µM, first compound 3.16 µM
[6] = second compound 0.1 µM, first compound 10 µM
[7] = second compound 0.316 µM, first compound 0.0316 µM
[8] = second compound 0.316 µM, first compound 0.1 µM
[9] = second compound 0.316 µM, first compound 0.316 µM
[10] = second compound 0.316 µM, first compound 1 µM
[11] = second compound 0.316 µM, first compound 3.16 µM
[12] = second compound 0.316 µM, first compound 10 µM
[13] = second compound 1 µM, first compound 0.0316 µM
[14] = second compound 1 µM, first compound 0.1 µM
[15] = second compound 1 µM, first compound 0.316 µM
[16] = second compound 1 µM, first compound 1 µM
[17] = second compound 1 µM, first compound 3.16 µM
[18] = second compound 1 µM, first compound 10 µM
[19] = second compound 3.16 µM, first compound 0.0316 µM
[20] = second compound 3.16 µM, first compound 0.1 µM
[21] = second compound 3.16 µM, first compound 0.316 µM
[22] = second compound 3.16 µM, first compound 1 µM
[23] = second compound 3.16 µM, first compound 3.16 µM
[24] = second compound 3.16 µM, first compound 10 µM
[25] = second compound 10 µM, first compound 0.0316 µM
[26] = second compound 10 µM, first compound 0.1 µM
[27] = second compound 10 µM, first compound 0.316 µM
[28] = second compound 10 µM, first compound 1 µM
[29] = second compound 10 µM, first compound 3.16 µM
[30] = second compound 10 µM, first compound 10 µM

Structure (SMILES)	IC50 (second compound 0.1 µM)	IC50 (second compound 0.316 µM)	IC50 (second compound 1 µM)	IC50 (second compound 3.16 µM)	IC50 (second compound 10 µM)	viability, T/C [1]	viability, T/C [2]	viability, T/C [3]	viability, T/C [4]	viability, T/C [5]	viability, T/C [6]	viability, T/C [7]	viability, T/C [8]	viability, T/C [9]	viability, T/C [13]	viability, T/C [14]	viability, T/C [19]	viability, T/C [20]	viability, T/C [25]	viability, T/C [26]	further results
CC1(C)CCC(CN2CCN(c3ccc(C(=O)NS(=O)(=O)c4ccc(NCC5CCOCC5)c([N+](=O)[O-])c4)c(Oc4cnc5[nH]ccc5c4)c3)CC2)=C(c2ccc(Cl)cc2)C1 + CC(CO)NC(=O)c1cc(-c2ccc(Cl)cc2)nn(-c2cnn(C)c2)c1=O	> 10 µM	> 10 µM	> 10 µM	> 10 µM	> 10 µM	85.8%	90.7%	107%	98.6%	82.7%	71.5%	84.4%	73%	71.8%	91%	89.3%	68%	70.2%	70.8%	69.3%	viability, T/C [10]: 84.2%; viability, T/C [11]: 100%; viability, T/C [12]: 78.3%; viability, T/C [15]: 78.8%; viability, T/C [16]: 80.4%; viability, T/C [17]: 85%; viability, T/C [18]: 86.3%; viability, T/C [21]: 91.4%; viability, T/C [22]: 82.5%; viability, T/C [23]: 60.7%; viability, T/C [24]: 88.6%; viability, T/C [27]: 74.7%; viability, T/C [28]: 54.8%; viability, T/C [29]: 78.2%; viability, T/C [30]: 78.2%
COc1cc(Nc2ncc3c(n2)-c2ccc(Cl)cc2C(c2c(F)cccc2OC)=NC3)ccc1C(=O)O + CC(CO)NC(=O)c1cc(-c2ccc(Cl)cc2)nn(-c2cnn(C)c2)c1=O	6.12 µM	> 10 µM	> 10 µM	> 10 µM	3.59 µM	77.5%	73.2%	82.6%	79.4%	58.1%	44%	61.6%	58%	76.6%	59.7%	67.1%	55.7%	55.4%	66.6%	58.7%	viability, T/C [10]: 66%; viability, T/C [11]: 52.5%; viability, T/C [12]: 44.5%; viability, T/C [15]: 72.7%; viability, T/C [16]: 73.8%; viability, T/C [17]: 71.5%; viability, T/C [18]: 47.4%; viability, T/C [21]: 60.3%; viability, T/C [22]: 61.6%; viability, T/C [23]: 56.9%; viability, T/C [24]: 41.8%; viability, T/C [27]: 70.2%; viability, T/C [28]: 54.4%; viability, T/C [29]: 52.2%; viability, T/C [30]: 38.9%
Cn1ncnc1C1c2n[nH]c(=O)c3cc(F)cc(c23)NC1c1ccc(F)cc1 (stereo not given) + CC(CO)NC(=O)c1cc(-c2ccc(Cl)cc2)nn(-c2cnn(C)c2)c1=O	> 0.1 µM	> 0.1 µM	> 0.1 µM	> 0.1 µM	> 0.1 µM	84%	107%	–	–	–	–	85.2%	79.2%	–	74.1%	103%	84.5%	77.2%	75.9%	76.1%	viability, T/C (second compound 0.1 µM, first compound 0.000316 µM): 111%; viability, T/C (second compound 0.1 µM, first compound 0.001 µM): 104%; viability, T/C (second compound 0.1 µM, first compound 0.00316 µM): 95.8%; viability, T/C (second compound 0.1 µM, first compound 0.01 µM): 98%; viability, T/C (second compound 0.316 µM, first compound 0.000316 µM): 84.1%; viability, T/C (second compound 0.316 µM, first compound 0.001 µM): 87.1%; viability, T/C (second compound 0.316 µM, first compound 0.00316 µM): 104%; viability, T/C (second compound 0.316 µM, first compound 0.01 µM): 89%; viability, T/C (second compound 1 µM, first compound 0.000316 µM): 96.2%; viability, T/C (second compound 1 µM, first compound 0.001 µM): 101%; viability, T/C (second compound 1 µM, first compound 0.00316 µM): 73.7%; viability, T/C (second compound 1 µM, first compound 0.01 µM): 81.2%; viability, T/C (second compound 3.16 µM, first compound 0.000316 µM): 79.7%; viability, T/C (second compound 3.16 µM, first compound 0.001 µM): 73%; viability, T/C (second compound 3.16 µM, first compound 0.00316 µM): 71.4%; viability, T/C (second compound 3.16 µM, first compound 0.01 µM): 89.1%; viability, T/C (second compound 10 µM, first compound 0.000316 µM): 71.8%; viability, T/C (second compound 10 µM, first compound 0.001 µM): 74.6%; viability, T/C (second compound 10 µM, first compound 0.00316 µM): 61.4%; viability, T/C (second compound 10 µM, first compound 0.01 µM): 89.4%
NS(=O)(=O)OCC1CC(n2ccc3c(NC4CCc5ccccc54)ncnc32)CC1O (stereo not given) + CC(CO)NC(=O)c1cc(-c2ccc(Cl)cc2)nn(-c2cnn(C)c2)c1=O	3.42 µM	2.91 µM	3.16 µM	> 10 µM	> 10 µM	112%	133%	96.5%	65.9%	44.6%	51.8%	127%	115%	92.5%	125%	127%	133%	129%	86.2%	104%	viability, T/C [10]: 58.5%; viability, T/C [11]: 47.3%; viability, T/C [12]: 49.7%; viability, T/C [15]: 118%; viability, T/C [16]: 69.2%; viability, T/C [17]: 48.2%; viability, T/C [18]: 50.6%; viability, T/C [21]: 108%; viability, T/C [22]: 69.2%; viability, T/C [23]: 54%; viability, T/C [24]: 59.3%; viability, T/C [27]: 103%; viability, T/C [28]: 76%; viability, T/C [29]: 62.6%; viability, T/C [30]: 63.6%
